Earlier results as cited in patent US20160106677A1, “PHARMACEUTICAL COMPOSITION AND USES THEREOF” (Boehringer Ingelheim International GmbH, priority 2014, published 2016).

Test system: HbA1c
Conditions: metformin on its own, in the diabetic

**Q.** With CN(C)C(=N)N=C(N)N [metformin] as the compound, how does the “average improvement in the HbA1c value” read?
**A.** 1.0-1.5%
